The text below walks through data of patent US12629374B2, “Antimalarial agents” (Merck Sharp & Dohme LLC, priority 2020, dated 2026).

In general, EC50 refers to the concentration giving half of the maximal effect.

The structures appear in SMILES notation.

The subject of one assay is ring stage parasites. Description: Parasite growth potency assay, 72 hours, LDH readout. It counts as cell-based. To be noted: 72 h, parasite growth measured by LDH assay after 72 hours at 37° C.; 0.7% rings, 2% haematocrit; read-out: EC50. In short, it runs like this: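 Parasite growth was quantified by LDH assay after a −80 °C freeze-thaw. Before that, compound was incubated for 72 h at 37 °C under humidified gas with ring-stage cultures adjusted to 0.7% parasitemia and 2% haematocrit in serum- and albumax-supplemented RPMI-Hepes.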
`CCC1(CC)CC(=O)N([C@H](CCOC(F)F)c2cccc(C(=O)N[C@@H]3c4ccccc4OC(C)(C)[C@H]3O)c2)C(=N)N1` [Example 159, [1-[3-(difluoromethoxy)-1-[3-[[(3S,4R)-3-hydroxy-2,2-dimethyl-chroman-4-yl]carbamoyl]phenyl]propyl]-4,4-diethyl-6-oxo-hexahydropyrimidin-2-ylidene]ammonium; 2,2,2-trifluoroacetate]: the EC50 was 0.8 nM.
Same read-out and setting: the result for `CC[C@@]1(C)CC(=O)N([C@H](CCOC(F)F)c2cccc(C(=O)N[C@@H]3c4ccccc4C[C@H]3O)c2)C(=N)N1` [Example 172, [(4S)-1-[3-(difluoromethoxy)-1-[3-[[(1R,2R)-2-hydroxyindan-1-yl]carbamoyl]phenyl]propyl]-4-ethyl-4-methyl-6-oxo-hexahydropyrimidin-2-ylidene]ammonium; 2,2,2-trifluoroacetate] reads 1.7 nM; that for `CCC1(CC)CC(=O)N([C@H](CCN2CCOCC2)c2cccc(C(=O)N[C@@H]3c4ccccc4C[C@H]3O)c2)C(=N)N1` [Example 55, [4,4-diethyl-1-[1-[3-[[(1R,2R)-2-hydroxyindan-1-yl]carbamoyl]phenyl]-3-morpholin-4-ium-4-yl-propyl]-6-oxo-hexahydropyrimidin-2-ylidene]ammonium; 2,2,2-trifluoroacetate], 9.8 nM; that for `CCC1(CC)CC(=O)N(Cc2cccc(C(=O)N[C@@H]3CC(C)(C)Oc4cccc(F)c43)c2)C(=N)N1` (stereo in doubt) [Example 94B, [4,4-diethyl-1-[[3-[(5-fluoro-2,2-dimethyl-chroman-4-yl)carbamoyl]phenyl]methyl]-6-oxo-hexahydropyrimidin-2-ylidene]ammonium; 2,2,2-trifluoroacetate], 72.5 nM.
On the same count and under the same terms, the result for `CCC1(CC)CC(=O)N([C@H](CCOC)c2cncc(C(=O)N[C@H]3CC(C)(C)Oc4ccccc43)c2)C(=N)N1` [Example 103, [1-[1-[5-I(4S)-2,2-dimethylchroman-4-yl]carbamoyl]pyridin-1-ium-3-yl]-3-methoxy-propyl]-4,4-diethyl-6-oxo-hexahydropyrimidin-2-ylidene]ammonium; 2,2,2-trifluoroacetate] reads 0.5 nM; that for `CCC1(COC)CC(=O)N(Cc2cccc(C(=O)N[C@H]3CCOc4ccccc43)c2)C(=N)N1` (stereo partly drawn) [Example 86, [1-[[3-[[(4S)-chroman-4-yl]carbamoyl]phenyl]methyl]-4-ethyl-4-(methoxymethyl)-6-oxo-hexahydropyrimidin-2-ylidene]ammonium; 2,2,2-trifluoroacetate], 49.6 nM; that for `CCC1(CC)CC(=O)N([C@H](c2ccc(S(C)(=O)=O)cc2)c2cccc(C(=O)N[C@H]3CC(C)(C)Oc4ccccc43)c2)C(=N)N1` [Example 115A, [1-[[3-[[(4S)-2,2-dimethylchroman-4-yl]carbamoyl]phenyl]-(4-methylsulfonylphenyl)methyl]-4,4-diethyl-6-oxo-hexahydropyrimidin-2-ylidene]ammonium; 2,2,2-trifluoroacetate], 1 nM.
The same measure, in the same setting: the figure for `CCC1(CC)CC(=O)N([C@H](C)c2cccc(C(=O)N[C@@H]3c4ccccc4C[C@@]3(C)O)c2)C(=N)N1` [Example 192A, 3-[(1R)-1-(4,4-diethyl-2-imino-6-oxo-hexahydropyrimidin-1-yl)ethyl]-N-[(1R,2R)-2-hydroxy-2-methyl-indan-1-yl]benzamide] is 2.1 nM.
In the case of `CC[C@H](c1cccc(C(=O)N[C@@H]2c3ccccc3OC[C@@]2(C)O)c1)N1C(=N)NC(CC)(CC)CC1=O` [Example 206A, 3-[1-(4,4-diethyl-2-imino-6-oxo-hexahydropyrimidin-1-yl)propyl]-N-[(3S,4R)-3-hydroxy-3-methyl-chroman-4-yl]benzamide], the EC50 was 1 nM.
Still for that read-out and setting: the result for `CCC1(CC)CC(=O)N([C@H](c2cncnc2)c2cccc(C(=O)N[C@@H]3c4ccccc4C[C@H]3O)c2)C(=N)N1` [Example 110B, 3-[(4,4-diethyl-2-imino-6-oxo-hexahydropyrimidin-1-yl)-pyrimidin-5-yl-methyl]-N-[(1R,2R)-2-hydroxyindan-1-yl]benzamide] reads 8.3 nM; that for `CCC1(CC)CC(=O)N([C@H](CCOC)c2cccc(C(=O)N[C@@H]3c4ccccc4OC(C)(C)C3(C)O)c2)C(=N)N1` (stereo partly drawn) [Example 203, 3-[(1R)-1-(4,4-diethyl-2-imino-6-oxo-hexahydropyrimidin-1-yl)-3-methoxy-propyl]-N-(3-hydroxy-2,2,3-trimethyl-chroman-4-yl)benzamide], 0.3 nM.
The same measure, in the same setting: the figure for `CCC[C@H](c1cccc(C(=O)N[C@@H]2c3ccccc3OCC2O)c1)N1C(=N)NC(CC)(CC)CC1=O` (single isomer, unassigned) [Example 127B] is 1.2 nM; for `CCC1(CC)CC(=O)N(Cc2cc(F)cc(C(=O)N[C@H]3CCOc4ccccc43)c2)C(=N)N1` [Example 12, [1-[[3-[[(4S)-chroman-4-yl]carbamoyl]-5-fluoro-phenyl]methyl]-4,4-diethyl-6-oxo-hexahydropyrimidin-2-ylidene]ammonium; 2,2,2-trifluoroacetate] it is 1.4 nM; for `CCC[C@H](c1cccc(C(=O)N[C@@H]2c3ccccc3CC2(C)O)c1)N1C(=N)NC(CC)(CC)CC1=O` (stereo partly drawn) [Example 122A, 3-[(1R)-1-(4,4-diethyl-2-imino-6-oxo-hexahydropyrimidin-1-yl)butyl]-N-(2-hydroxy-2-methyl-indan-1-yl)benzamide] it is 1.2 nM.
Still for that read-out and setting: the result for `CCC1(CC)CC(=O)N([C@H](c2cccc(C(=O)N[C@H]3CCOc4ccccc43)c2)c2cccc(S(C)(=O)=O)c2)C(=N)N1` [Example 123B, [1-[[3-[[(4S)-chroman-4-yl]carbamoyl]phenyl]-(3-methylsulfonylphenyl)methyl]-4,4-diethyl-6-oxo-hexahydropyrimidin-2-ylidene]ammonium; 2,2,2-trifluoroacetate] reads 9.3 nM; that for `CCC1(CC)CC(=O)N([C@H](CCOC)c2cccc(C(=O)N[C@@H]3c4ccccc4OC(C)(C)[C@H]3O)c2)C(=N)N1` (stereo in doubt) [Example 128, [4,4-diethyl-1-[1-[3-[(3-hydroxy-2,2-dimethyl-chroman-4-yl)carbamoyl]phenyl]-3-methoxy-propyl]-6-oxo-hexahydropyrimidin-2-ylidene]ammonium; 2,2,2-trifluoroacetate], 1.1 nM.
In the case of `CCC1(CC)CC(=O)N([C@@H](c2cccc(C(=O)N[C@H]3CCOc4ccccc43)c2)c2cncs2)C(=N)N1` [Example 85A, N-[(4S)-chroman-4-yl]-3-[(4,4-diethyl-2-imino-6-oxo-hexahydropyrimidin-1-yl)-thiazol-5-yl-methyl]benzamide], the EC50 came out at 1 nM.
Consider `CCC1(CC)CC(=O)N([C@@H](CCOC)c2cccc(C(=O)N[C@H]3C[C@H](C(F)(F)F)Oc4ccccc43)c2)C(=N)N1` [Example 132A, [[(2R,4S)-2-(trifluoromethyl)chroman-4-yl]carbamoyl]phenyl]propyl]-6-oxo-hexahydropyrimidin-2-ylidene]ammonium; 2,2,2-trifluoroacetate], for which the EC50 was determined as 59 nM.
Same read-out and setting: the figure for `CC1(C)CC(=O)N(C(CC(F)(F)F)c2cccc(C(=O)N[C@@H]3c4ccccc4C[C@H]3O)c2)C(=N)N1` (stereo partly drawn) [Example 224, N-[(1R,2R)-2-hydroxyindan-1-yl]-3-[3,3,3-trifluoro-1-(2-imino-4,4-dimethyl-6-oxo-hexahydropyrimidin-1-yl)propyl]benzamide] is 15.5 nM.
As to `N=C1N[C@@](CC2CC2)(c2ccccc2)CC(=O)N1Cc1cc(F)cc(C(=O)N[C@H]2CCOc3ccccc32)c1` [Example 5A, [(4R)-1-[[3-[[(4S)-chroman-4-yl]carbamoyl]-5-fluoro-phenyl]methyl]-4-(cyclopropylmethyl)-6-oxo-4-phenyl-hexahydropyrimidin-2-ylidene]ammonium; 2,2,2-trifluoroacetate], the EC50 stood at 16.2 nM.

Staying with this assay, now noted: parasite growth measured by LDH assay after 72 hours at 37° C.; 0.7% rings, 2% haematocrit; read-out: EC50.
As to `CCC1(CC)CC(=O)N(C(CC(O)C(F)(F)F)c2cccc(C(=O)N[C@@H]3c4ccccc4C[C@H]3O)c2)C(=N)N1` (single isomer, unassigned) [Example 236B], the EC50 was found to be 0.96 nM.
The same measure, in the same setting: the result for `C#CCCC(c1cccc(C(=O)NC2CC(C)(C)Oc3ccccc32)c1)N1C(=N)NC(CC)(CC)CC1=O` [Example 214B, 3-[(1R)-1-(4,4-diethyl-2-imino-6-oxo-hexahydropyrimidin-1-yl)pent-4-ynyl]-N-(2,2-dimethylchroman-4-yl)benzamide] reads 31.2 nM; that for `CCC1(CC)CC(=O)N([C@@H](c2cccc(C(=O)N[C@@H]3CC(C)(C)Oc4ccccc43)c2)c2cncs2)C(=N)N1` (stereo in doubt) [Example 90A, 3-[(4,4-diethyl-2-imino-6-oxo-hexahydropyrimidin-1-yl)-thiazol-5-yl-methyl]-N-(2,2-dimethylchroman-4-yl)benzamide], 3.2 nM.
Take `CCC1(CC)CC(=O)N([C@H](CCOC)c2cccc(C(=O)NC3c4ccccc4C(F)(F)C3O)c2)C(=N)N1` (stereo partly drawn) [Example 189B, [1-[(1R)-1-[3-[(3,3-difluoro-2-hydroxy-indan-1-yl)carbamoyl]phenyl]-3-methoxy-propyl]-4,4-diethyl-6-oxo-hexahydropyrimidin-2-ylidene]ammonium; chloride]: the EC50 worked out at 292 nM.

Still in this assay, the particulars now being: parasite growth measured by LDH assay after 72 hours at 37° C.; 0.7% rings, 2% haematocrit; trifluoroacetate; read-out: EC50.
Turning to `C#CCC[C@H](c1cccc(C(=O)NC2CC3(CCC3)Oc3ccccc32)c1)N1C(=N)NC(CC)(CC)CC1=O` (stereo in doubt) [Example 211B, [4,4-diethyl-6-oxo-1-[(1R)-1-[3-[[(4R)-spiro[chromane-2,1′-cyclobutane]-4-yl]carbamoyl]phenyl]pent-4-ynyl]hexahydropyrimidin-2-ylidene]ammonium; 2,2,2-trifluoroacetate], the EC50 amounted to 0.5 nM.
